Test system: H9 embryonic stem cells
Experiment: Microarray analysis of definitive endoderm stage cells on […] or MEFs +/- Wnt-3a (Table VI)
Format: cell-based, human
Details: low serum, on MEFS
Description: Controls for each group included cells plated on [sequence]—coated dishes and cultured in MEF-conditioned medium or cells plated on MEFs and cultured in ES medium. All groups contained three biological replicates and each biological replicate was repeated on two separate gene chips.
Sample preparation, hybridization, and image analysis were performed according to the Affymetrix Human Genome U133 Plus 2.0 Array. Following normalization and a log transformation, data analysis was performed using OmniViz® software (MA) and [sequence] […] Significant differences in gene expression between the samples were evaluated using analysis of variance and an F-test with adjusted P-value (Benjamini and Hochberg correction) of less-than or equal to 0.05. Only genes with a present call in at least one group were included in the analysis.

Substance: Activin A: activin A (a member of the TGFβ superfamily), R&D Systems; 'w/o wnt' in Table VII = 100 ng/ml Activin A without Wnt3a
- Intensity (log): Homo sapiens haptoglobin-related protein (HPR), mRNA: −1.196
- Intensity (log): Homo sapiens homeobox protein goosecoid mRNA, complete cds: 1.894
- Intensity (log): Homo sapiens hypothetical protein FLJ10718 (FLJ10718), mRNA: 5.552
- Intensity (log): Homo sapiens hypothetical protein FLJ10970 (FLJ10970), mRNA: 3.02
- Intensity (log): Homo sapiens hypothetical protein FLJ11316 (FLJ11316), mRNA: 0.7553
- Intensity (log): Homo sapiens hypothetical protein FLJ22252 similar to SRY-box containing gene 17 (FLJ22252), mRNA: 4.5979
- Intensity (log): Homo sapiens lumican (LUM), mRNA: 0.9488
- Intensity (log): Homo sapiens mRNA for GATA-6, complete cds: 5.343
- Intensity (log): Homo sapiens mRNA for KIAA1409 protein, partial cds: −1.032
- Intensity (log): Homo sapiens mRNA; cDNA DKFZp434D0818 (from clone DKFZp434D0818): −0.3056
- Intensity (log): Homo sapiens mRNA; cDNA DKFZp586J0624 (from clone DKFZp586J0624); complete cds: 3.699
- Intensity (log): Homo sapiens presenilin stabilization factor b (PSF) mRNA, complete cds; alternatively spliced: 0.5675
- Intensity (log): Homo sapiens reserved (KCNK12), mRNA: 3.78
- Intensity (log): Homo sapiens retinoid X receptor, gamma (RXRG), mRNA: −0.3204
- Intensity (log): Homo sapiens sema domain, immunoglobulin domain (Ig), short basic domain, secreted, (semaphorin) 3E (SEMA3E), mRNA: 1.276
- Intensity (log): Homo sapiens sema domain, seven thrombospondin repeats (type 1 and type 1-like), transmembrane domain (TM) and short cytoplasmic domain, (semaphorin) 5A (SEMA5A), mRNA: 1.487
- Intensity (log): Homo sapiens solute carrier family 21 (prostaglandin transporter), member 2 (SLC21A2), mRNA: 2.433
- Intensity (log): Homo sapiens type VI collagen alpha 2 chain precursor (COL6A2) mRNA, complete cds, alternatively spliced: 2.845
- Intensity (log): Homo sapiens, alpha-1 (VI) collagen: −2.269
- Intensity (log): Homo sapiens, clone MGC: 4655, mRNA, complete cds: 2.476
- Intensity (log): Human (clone 8B1) Br-cadherin mRNA, complete cds: −1.026
- Intensity (log): Human (clone HSY3RR) neuropeptide Y receptor (NPYR) mRNA, complete cds: 5.48
- Intensity (log): Human DNA sequence from clone RP1-181C24 on chromosome 6p11.1-12.2. Contains the 3 end of the BMP5 gene for bone morphogenetic protein 5, ESTs, STSs and GSSs: −0.3731
- Intensity (log): Human Fritz mRNA, complete cds: 3.915
- Intensity (log): Human dipeptidyl peptidase IV (CD26) mRNA, complete cds: −1.256
- Intensity (log): Human glycophorin HeP2 mRNA, partial cds: 0.2335
- Intensity (log): Human link protein mRNA, complete cds: −1.263
- Intensity (log): Human mRNA for alpha-1 type II collagen: −0.3802
- Intensity (log): Human mRNA for apolipoprotein AI (apo AI): 2.497
- Intensity (log): Human prostatic secretory protein 57 mRNA, complete cds: −0.4077
- Intensity (log): KIAA1462 protein: 0.4371
- Intensity (log): MCP-1 = monocyte chemotactic protein (human, aortic endothelial cells, mRNA, 661 nt): 2.955
- Intensity (log): Rho GDP dissociation inhibitor (GDI) alpha: −2.582
- Intensity (log): WAS protein family, member 2: −1.06
- Intensity (log): collagen, type IX, alpha 2: 2.935
- Intensity (log): collagen, type VI, alpha 1: 0.6042
- Intensity (log): hepatocyte nuclear factor 4, alpha: 0.4452
- Intensity (log): homeo box HB9: 1.631
- Intensity (log): hypothetical protein FLJ21032: 2.618
- Intensity (log): hypothetical protein FLJ23091: 3.78
- Intensity (log): microfibrillar-associated protein 4: −0.6009
- Intensity (log): myristoylated alanine-rich protein kinase C substrate (MARCKS, 80K-L): 0.3357
- Intensity (log): neuropilin 1: −1.9667
- Intensity (log): noggin: 1.33
- Intensity (log): splicing factor, arginine serine-rich 5: 4.272
- Intensity (log): stanniocalcin 1: 6.143
- Intensity (log): ESTs (r13): −4.27
- Intensity (log): ESTs (r16): −2.6475
- Intensity (log): solute carrier family 16 (monocarboxylic acid transporters), member 3 (r20): 0.279
- Intensity (log): Homo sapiens solute carrier family 16 (monocarboxylic acid transporters), member 3 (SLC16A3), mRNA (r30): 1.724
- Intensity (log): ESTs (r49): 0.967
- Intensity (log): glycophorin B (includes Ss blood group) (r50): −0.1297
- Intensity (log): ESTs (r62): −0.2374
- Intensity (log): Homo sapiens HNF-3beta mRNA for hepatocyte nuclear factor-3 beta, complete cds (r66): 2.825
- Intensity (log): ESTs (r81): −2.321
- Intensity (log): ESTs (r92): 0.926
- Intensity (log): ESTs (r98): −2.206
- Intensity (log): ESTs (r108): −1.825
- Intensity (log): Homo sapiens phorbolin-like protein MDS019 (MDS019), mRNA (r121): 2.408
- Intensity (log): ESTs (r129): 0.4204
- Intensity (log): ESTs (r136): 3.522
- Intensity (log): ESTs (r137): 0.761
- Intensity (log): ESTs (r142): 1.433
- Intensity (log): ESTs (r145): 1.0501
- Intensity (log): Cluster Incl. AB028021: Homo sapiens HNF-3beta mRNA for hepatocyte nuclear factor-3 beta, complete cds (r165): 4.117
- Intensity (log): hypothetical protein FLJ23403 (r205): −2.313
- Intensity (log): matrix metalloproteinase 14 (membrane-inserted) (r215): −0.5185
- Intensity (log): Homo sapiens glycophorin B (includes Ss blood group) (GYPB), mRNA (r218): 0.1803
- Intensity (log): ESTs (r234): 3.913
- Intensity (log): ESTs (r240): 3.125
- Intensity (log): ESTs (r241): −0.5703
- Intensity (log): KIAA0878 protein (r250): 4.789
- Intensity (log): ESTs (r260): 4.814
- Intensity (log): Homo sapiens matrix metalloproteinase 14 (membrane-inserted) (MMP14), mRNA (r270): −0.09689
- Intensity (log): ESTs (r278): 0.6202
- Intensity (log): ESTs (r290): 2.657
- Intensity (log): ESTs (r301): 3.372
- Intensity (log): ESTs (r314): −0.2982
- Intensity (log): Homo sapiens hypothetical protein FLJ23403 (FLJ23403), mRNA (r315): −1.004
- Intensity (log): ESTs (r319): −0.1895
- Intensity (log): Homo sapiens KIAA0878 protein (KIAA0878), mRNA (r332): 5.654
- Intensity (log): phorbolin-like protein MDS019 (r340): 0.5035
- Intensity (log): ESTs (r347): 3.749
- Intensity (log): ESTs (r376): 0.8249
- Intensity (log): ESTs (r377): −1.364

Source: patent US9096832B2, “Differentiation of human embryonic stem cells” (LifeScan, Inc., priority 2007, dated 2015)
